Results published in patent US20250002450A1, “CATIONIC STEROID COMPOUNDS, METHOD OF OBTAINING THEREOF, FORMULATIONS COMPRISING THEREOF AND THEIR USES” (UNIVERSIDADE DO PORTO, priority 2021, published 2025).
In brackets after ≈: the same amount, converted by molar mass.

Legend:
Experiment in all cases: Antibacterial MIC/MBC (broth microdilution)
[1] = system: Klebsiella pneumoniae ATCC 13883; type: cell-based; conditions: ATCC13883, Klebsiella pneumoniae ATCC 13883; for MBC: read-out: MBC; for MIC: read-out: MIC
Summary of the method: (§1)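 Each strain is exposed to two-fold compound dilutions (0.062-64 μg/mL) in MHB2 at roughly 5×10^5 CFU/mL for 20 h at 37 degrees C. Clear wells are subcultured overnight on MH agar for the 99.9%-kill MBC.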

[2] = system: Pseudomonas aeruginosa ATCC 27853; type: cell-based; conditions: ATCC27853, Pseudomonas aeruginosa ATCC 27853; for MBC: read-out: MBC; for MIC: read-out: MIC
Summary of the method: as §1

[3] = system: Salmonella enterica serovar Typhimurium CECT 443; type: cell-based; conditions: for MBC: read-out: MBC; for MIC: read-out: MIC
Summary of the method: as §1

[4] = system: Campylobacter jejuni ATCC 33560; type: cell-based; conditions: for MBC / MIC: ATCC33560, Campylobacter jejuni ATCC 33560; for MBC: read-out: MBC; for MIC: read-out: MIC
[5] = system: Escherichia coli ATCC 25922; type: cell-based; conditions: ATCC25922, Escherichia coli ATCC 25922; for MBC: read-out: MBC; for MIC: read-out: MIC
Summary of the method: as §1

[6] = system: Acinetobacter baumannii ATCC 19606; type: cell-based; conditions: ATCC19606, Acinetobacter baumannii ATCC 19606; for MBC: read-out: MBC; for MIC: read-out: MIC
Summary of the method: as §1

[7] = system: Staphylococcus aureus ATCC 29213; type: cell-based; conditions: for MBC: ATCC29213, read-out: MBC; for MIC: ATCC29213, read-out: MIC
Summary of the method: as §1

[8] = system: Listonella anguilarum ATCC 1924; type: cell-based; conditions: Listonella anguilarum ATCC 1924; for MBC: read-out: MBC; for MIC: read-out: MIC
Summary of the method: as §1

[9] = system: Yersinia ruckeri ATCC 29473; type: cell-based; conditions: for MBC: ATCC29473, read-out: MBC; for MIC: ATCC29473, read-out: MIC
Summary of the method: as §1

[10] = system: Streptococcuss pyogenes ATCC 19615; type: cell-based, Streptococcus pyogenes; conditions: for MBC / MIC: Streptococcus pyogenes, ATCC19615, Streptococcuss pyogenes ATCC 19615; for MBC: read-out: MBC; for MIC: read-out: MIC
Summary of the method: as §1

[11] = system: S. aureus 66/1 (MRSA); type: cell-based, Staphylococcus aureus; conditions: Staphylococcus aureus; for MBC: read-out: MBC; for MIC: read-out: MIC
Summary of the method: as §1

[12] = system: E. coli 2252 (COL-resistant); type: cell-based, Escherichia coli; conditions: Escherichia coli, E. coli 2252 (COL-resistant); for MBC: read-out: MBC; for MIC: read-out: MIC
Summary of the method: as §1

[13] = system: C. jejuni 4432; type: cell-based, Campylobacter jejuni; conditions: for MBC / MIC: Campylobacter jejuni; for MBC: read-out: MBC; for MIC: read-out: MIC
[14] = system: C. jejuni 4448; type: cell-based, Campylobacter jejuni; conditions: for MBC / MIC: Campylobacter jejuni; for MBC: read-out: MBC; for MIC: read-out: MIC
[15] = system: C. jejuni 4433; type: cell-based, Campylobacter jejuni; conditions: for MBC / MIC: Campylobacter jejuni; for MBC: read-out: MBC; for MIC: read-out: MIC
[16] = system: C. jejuni P5/4; type: cell-based, Campylobacter jejuni; conditions: Campylobacter jejuni; for MBC: read-out: MBC; for MIC: read-out: MIC

For C[C@H](CCC(=O)N1CCCCC1)[C@H]1CC[C@H]2[C@@H]3CC[C@@H]4C[C@H](O)CC[C@]4(C)[C@H]3C[C@H](O)[C@]12C [Compound 2, (R)-4-((3R,5R,8R,9S,10S,12S,13R,14S,17R)-3,12-dihydroxy-10,13-dimethylhexadecahydro-1H-cyclopenta[a]phenanthren-17-yl)-1-(piperidin-1-yl) pentan-1-one], the MBC [1] was > 64 µg/mL, the MIC [1] was > 64 µg/mL and the MBC [2] was > 64 µg/mL. For the same molecule, the MIC [2] was > 64 µg/mL, the MBC [3] was > 64 µg/mL and the MIC [3] was > 64 µg/mL. The MBC [4] was 64 µg/mL (≈ 139 µM), the MIC [4] was 64 µg/mL (≈ 139 µM) and the “antibacterial activity (in words)” value ([4]; C. jejuni ATCC 33560) was “showed antimicrobial activity”. The MBC [5] was > 64 µg/mL, the MIC [5] was > 64 µg/mL and the MBC [6] was > 64 µg/mL. The MIC [6] was > 64 µg/mL, the MBC [7] was > 64 µg/mL and the MIC [7] was 32 µg/mL (≈ 69.6 µM). The MBC [8] was > 64 µg/mL, the MIC [8] was > 64 µg/mL and the MBC [9] was > 64 µg/mL. For the same molecule, the MIC [9] was > 64 µg/mL, the “antibacterial activity (in words)” value ([10]; S. pyogenes ATCC 19615) was “active” and the MBC [10] was 32 µg/mL (≈ 69.6 µM). For the same molecule, the MIC [10] was 32 µg/mL (≈ 69.6 µM), the MBC [11] was > 64 µg/mL and the MIC [11] was 32 µg/mL (≈ 69.6 µM). For the same molecule, the MBC [12] was > 64 µg/mL, the MIC [12] was > 64 µg/mL and the “antibacterial activity (in words)” value [13] was “showed antimicrobial activity”. The MBC [13] was > 64 µg/mL, the MIC [13] was 64 µg/mL (≈ 139 µM) and the “antibacterial activity (in words)” value [14] was “showed antimicrobial activity”. The MBC [14] was > 64 µg/mL, the MIC [14] was > 64 µg/mL and the “antibacterial activity (in words)” value [15] was “showed antimicrobial activity”. The MBC [15] was > 64 µg/mL, the MIC [15] was > 64 µg/mL and the MBC [16] was > 64 µg/mL. For the same molecule, the MIC [16] was > 64 µg/mL.
In the case of C[C@H](CCC(=O)N1CCN(C(=O)OC(C)(C)C)CC1)[C@H]1CC[C@H]2[C@@H]3CC[C@@H]4C[C@H](O)CC[C@]4(C)[C@H]3C[C@H](O)[C@]12C [Compound 5, tert-butyl 4-((R)-4-((3R,5R,8R,9S,10S,12S,13R,14S,17R)-3,12-dihydroxy-10,13-dimethylhexadecahydro-1H-cyclopenta[a]phenanthren-17-yl)pentanoyl)piperazine-1-carboxylate], the MBC [1] is reported as > 64 µg/mL, the MIC [1] is reported as > 64 µg/mL and the MBC [2] is reported as > 64 µg/mL. The MIC [2] was > 64 µg/mL, the MBC [3] was > 64 µg/mL and the MIC [3] was > 64 µg/mL. The MBC [4] was > 64 µg/mL, the MIC [4] was > 64 µg/mL and the MBC [5] was > 64 µg/mL. For the same molecule, the MIC [5] was > 64 µg/mL, the MBC [6] was > 64 µg/mL and the MIC [6] was > 64 µg/mL. For the same molecule, the MBC [7] was > 64 µg/mL, the MIC [7] was 16 µg/mL (≈ 28.5 µM) and the MBC [8] was > 64 µg/mL. The MIC [8] was > 64 µg/mL, the MBC [9] was > 64 µg/mL and the MIC [9] was > 64 µg/mL. For the same molecule, the MBC [10] was > 64 µg/mL, the MIC [10] was > 64 µg/mL and the MBC [11] was > 64 µg/mL. For the same molecule, the MIC [11] was 64 µg/mL (≈ 114 µM), the MBC [12] was > 64 µg/mL and the MIC [12] was > 64 µg/mL. For the same molecule, the MBC [13] was > 64 µg/mL, the MIC [13] was > 64 µg/mL and the MBC [14] was > 64 µg/mL. The MIC [14] was > 64 µg/mL, the MBC [15] was > 64 µg/mL and the MIC [15] was > 64 µg/mL. The MBC [16] was > 64 µg/mL and the MIC [16] was > 64 µg/mL.
